Results reported in patent US11560373B2, “Compounds and their use as PDE4 activators” (Mironid Limited, priority 2018, dated 2023).

What was measured:
PDE4D5 = target: T1, PDE4D5 (Homo sapiens, UniProt Q08499); experiment: PDE assay, [3H]cAMP hydrolysis by HEK-PDE4D5 cell lysate cytosol fraction; type: biochemical; details: 30 μM; mean % increase in counts over basal activity
T1 construct: stably expressed the full-length human PDE4D5, PDE4B1 and PDE4A4 long isoforms; made in house
Method: (§1) HEK 293 cells were transfected with pDEST™ PDE4 expression vectors using Lipofectamine LTX/Plus reagent (Invitrogen) as outlined by the manufacturer and clonal isolates expanded to obtain cell lines that stably expressed the full-length human PDE4D5, PDE4B1 and PDE4A4 long isoforms and the full length human PDE4B2 short isoform. These were called the HEK-PDE4D5, HEK-PDE4B1, HEK-PDE4A4 and HEK-PDE4B2 cell lines, respectively.
(§2) HEK-PDE4D5 cells were seeded out in 100 mm plates and incubated at 37° C. in an atmosphere of 5% CO2, 95% air. Cell lysates were prepared using KHEM buffer [50 mM KCl, 10 mM EGTA, 50 mM HEPES (pH 7.2), 1.92 mM MgCl2].
(§3) To prepare the cell lysates, the 100 mm plates containing the cells were placed on ice and washed with ice-cold PBS (phosphate buffered saline, pH 7.4). KHEM buffer (500 μl) was added to the cells. Cells were then scraped off the plate and triturated using a needle (BD Microlance™ 0.8, 40 mm). The lysed cells were then centrifuged at 2000 rpm for 10 minutes to remove cell debris and the supernatant (cell lysate containing recombinant PDE4D5) was transferred to a fresh tube and kept on ice.
(§4) The cell lysate containing recombinant PDE4D5 was transferred into a centrifuge tube and placed into an ultracentrifuge (BECKMAN COULTER) and spun at high speed (100,000 g) for 30 minutes at 4° C. The cytosol fraction was then collected and its protein amount determined using a BCA protein assay.
(§5) PDE assays were performed in thin walled V-bottomed 96-well plates. The assays were performed at a final concentration of 10 mM Tris/5 mM MgCl2 plus PDE4D5 cell lysate cytosol fraction, containing over-expressed PDE4D5, with and without test compound. The lysate/compound mix were incubated together for 15 min at room temperature on an orbital shaker prior to addition of [^3H] cAMP (final concentration 1 μM [^3H] cAMP; Perkin Elmer) to a final volume of 50 μl per reaction. The reactions were then incubated for 10 minutes at 30° C., terminated by heating for 2 min at 95° C. and allowed to cool. Snake venom (12.5 μl of 1 mg/ml; Crotalus atrox, Sigma) was then added and the plates were agitated and incubated for a further 15 minutes at 30° C. Dowex ion exchange resin (Sigma, chloride form, 200-400 mesh; 200 μl; prepared as a 1:1 Dowex: water stock, thoroughly re-suspended and diluted 2:1 with ethanol) was then added to each well and the plates incubated for 15 min at room temperature on an orbital shaker ensuring sufficient agitation for resin suspension (550 RPM). The reaction mixture was then transferred to a 96 well filter plate (Millipore; […] pore size) and filtered into a receiving 96-well plate to remove the dowex suspension. 30 μL of the filtered solution was then transferred to the wells of an Opti-plate (Perkin Elmer) 96 well assay plate and 120 μl of Microscint 40 scintillation fluid was added. The plate was then placed on an orbital shaker for 10 min at high speed (900 RPM) to mix the sample with scintillation fluid prior to quantitation using a plate based scintillation counter (Top-Count).
(§6) The % increase in counts in the presence of test compound at a particular concentration indicates the % increase in enzyme activity at that concentration.

PDE4B2 = target: T2, PDE4B2 (Homo sapiens, UniProt Q07343); experiment: PDE assay, [3H]cAMP hydrolysis by HEK-PDE4B2 cell lysate cytosol fraction (short form); type: biochemical; details: mean % increase in counts over basal activity
T2 construct: the full length human PDE4B2 short isoform; made in house
T2 sequence (Q07343 1-564 isoform Q07343-2): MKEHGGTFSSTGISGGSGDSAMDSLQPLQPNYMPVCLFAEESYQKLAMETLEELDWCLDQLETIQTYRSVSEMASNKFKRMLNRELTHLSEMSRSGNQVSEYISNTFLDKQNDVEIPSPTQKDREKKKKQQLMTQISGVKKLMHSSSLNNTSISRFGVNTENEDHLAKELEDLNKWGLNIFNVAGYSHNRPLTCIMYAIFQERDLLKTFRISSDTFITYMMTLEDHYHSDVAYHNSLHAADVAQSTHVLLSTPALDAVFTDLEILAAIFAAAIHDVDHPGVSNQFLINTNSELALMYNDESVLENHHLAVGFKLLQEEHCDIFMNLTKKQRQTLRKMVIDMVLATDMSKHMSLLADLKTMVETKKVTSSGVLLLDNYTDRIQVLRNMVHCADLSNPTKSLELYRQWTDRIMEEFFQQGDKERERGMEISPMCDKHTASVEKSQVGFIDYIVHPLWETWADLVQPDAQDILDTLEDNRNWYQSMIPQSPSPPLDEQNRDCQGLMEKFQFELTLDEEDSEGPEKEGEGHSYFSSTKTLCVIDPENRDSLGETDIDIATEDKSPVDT
Method: as §1, §2, §3, §4, §5, §6

T1 sequence (Q08499 1-745 isoform Q08499-6): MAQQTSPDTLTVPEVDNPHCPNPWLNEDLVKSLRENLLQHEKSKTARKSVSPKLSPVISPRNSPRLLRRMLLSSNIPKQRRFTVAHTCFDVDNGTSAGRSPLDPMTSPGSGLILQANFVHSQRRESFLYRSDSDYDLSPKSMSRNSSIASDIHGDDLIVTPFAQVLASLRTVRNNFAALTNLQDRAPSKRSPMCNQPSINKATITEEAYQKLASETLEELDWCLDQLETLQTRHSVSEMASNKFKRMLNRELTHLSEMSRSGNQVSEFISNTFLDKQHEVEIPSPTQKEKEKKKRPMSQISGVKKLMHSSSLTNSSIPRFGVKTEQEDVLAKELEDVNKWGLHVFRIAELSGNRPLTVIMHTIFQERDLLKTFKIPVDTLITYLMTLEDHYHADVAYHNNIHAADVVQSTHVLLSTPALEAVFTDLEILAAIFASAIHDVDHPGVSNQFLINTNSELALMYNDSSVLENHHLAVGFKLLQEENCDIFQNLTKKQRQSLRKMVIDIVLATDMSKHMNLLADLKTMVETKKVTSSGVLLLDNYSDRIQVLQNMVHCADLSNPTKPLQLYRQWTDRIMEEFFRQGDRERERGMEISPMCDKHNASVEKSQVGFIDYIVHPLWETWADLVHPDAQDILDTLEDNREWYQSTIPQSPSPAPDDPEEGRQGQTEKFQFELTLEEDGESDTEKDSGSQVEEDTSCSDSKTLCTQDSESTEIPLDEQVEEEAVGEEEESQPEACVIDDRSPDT

SMILES | activation at 30 µM (PDE4D5) [%] | % increase in PDE4B2 activity at 30 μM (PDE4B2) [%]
CCn1nc(-c2ccc(Cl)c(OC)c2)nc1CC(=O)NCc1cc(Cl)cc(Cl)c1 [Example 29, 2-[3-(4-Chloro-3-methoxyphenyl)-1-ethyl-1H-1,2,4-triazol-5-yl]-N-[(3,5-dichlorophenyl)methyl]acetamide] | 104 | 3.4
CCn1nc(-c2ccc(Cl)c(OCCOC)c2)nc1CC(=O)NCc1cc(Cl)cc(Cl)c1 [Example 33, 2-{3-[4-Chloro-3-(2-methoxyethoxy)phenyl]-1-ethyl-1H-1,2,4-triazol-5-yl}-N-[(3,5-dichlorophenyl)methyl]acetamide] | 82.3 | −9.4
CCn1nc(-c2ccc(Cl)c(OC(C)C)c2)nc1CC(=O)N[C@H]1CCc2ccccc21 [Example 36, 2-[3-(4-Chloro-3-isopropyloxyphenyl)-1-ethyl-1H-1,2,4-triazol-5-yl]-N-[(1S)-2,3-dihydro-1H-inden-1-yl]acetamide] | 33 | –
CCn1nc(-c2ccc(Cl)c(OC(C)C)c2)nc1CC(=O)NCc1cccc(C#N)c1 [Example 37, 2-[3-(4-Chloro-3-isopropyloxyphenyl)-1-ethyl-1H-1,2,4-triazol-5-yl]-N-[(3-cyanophenyl)methyl]acetamide] | 40.2 | –
CCn1nc(-c2ccc(Cl)c(OC(C)C)c2)nc1CC(=O)NCc1ccc2[nH]ncc2c1 [Example 38, 2-[3-(4-Chloro-3-isopropyloxyphenyl)-1-ethyl-1H-1,2,4-triazol-5-yl]-N-[(1H-indazol-5-yl)methyl]acetamide] | 81.6 | –
CCn1nc(-c2ccc(Cl)c(OC(C)C)c2)nc1CC(=O)N[C@H]1CCc2ncccc21 [Example 42, 2-[3(4-Chloro-3-isopropyloxyphenyl)-1-ethyl-1H-1,2,4-triazol-5-yl]-N-[(5S)-5H,6H,7H-cyclopenta[b]pyridin-5-yl]acetamide] | 40 | –
CC(C)Oc1cc(-c2nc(CC(=O)N[C@H]3CCc4ccccc43)n(C)n2)ccc1Cl [Example 44] | 45 | –
CC(C)Oc1cc(-c2nc(CC(=O)NCc3cccc(F)c3)n(C)n2)ccc1Cl [Example 46, 2-[3-(4-Chloro-3-isopropyloxyphenyl)-1-methyl-1H-1,2,4-triazol-5-yl]-N-[(3-fluorophenyl)methyl]acetamide] | 26.2 | –
CC(C)Oc1cc(-c2nc(CC(=O)N[C@H]3CCOc4ccccc43)n(C)n2)ccc1Cl [Example 48, 2-[3-(4-Chloro-3-isopropyloxyphenyl)-1-methyl-1H-1,2,4-triazol-5-yl]-N-[(4S)-3,4-dihydro-2H-1-benzopyran-4-yl]acetamide] | 45.2 | –
CCn1nc(-c2ccc(Cl)c(F)c2)nc1C(F)(F)C(=O)NCc1cc(Cl)cc(Cl)c1 [Example 50, 2-[3-(4-Chloro-3-fluorophenyl)-1-ethyl-1H-1,2,4-triazol-5-yl]-N-[(3,5-dichlorophenyl)methyl]-2,2-difluoroacetamide] | 36.7 | –
CCn1nc(-c2ccc(Cl)c(F)c2)nc1C(F)(F)C(=O)NCc1ccc2[nH]c(C)nc2c1 [Example 52, 2-[3-(4-Chloro-3-fluorophenyl)-1-ethyl-1H-1,2,4-triazol-5-yl]-2,2-difluoro-N-[(2-methyl-1H-1,3-benzimidazol-5-yl)methyl]acetamide] | 73.8 | –
COC(=O)Cn1nc(-c2ccc(Cl)c(F)c2)nc1CC(=O)NCc1cc(Cl)cc(Cl)c1 [Example 54, Methyl 2-[3-(4-chloro-3-fluorophenyl)-5-({[(3,5-dichlorophenyl)methyl]carbamoyl}methyl)-1H-1,2,4-triazol-1-yl]acetate] | 97.2 | –
CCOC(=O)CCCn1nc(-c2ccc(Cl)c(F)c2)nc1CC(=O)NCc1cc(Cl)cc(Cl)c1 [Example 56, Ethyl 4-[3-(4-chloro-3-fluorophenyl)-5-({[(3,5-dichlorophenyl)methyl]carbamoyl}methyl)-1H-1,2,4-triazol-1-yl]butanoate] | 155 | –
O=C(O)CCn1nc(-c2ccc(Cl)c(F)c2)nc1CC(=O)NCc1cc(Cl)cc(Cl)c1 [Example 58, 3-[3-(4-Chloro-3-fluorophenyl)-5-({[(3,5-dichlorophenyl)methyl]carbamoyl}methyl)-1H-1,2,4-triazol-1-yl]propanoic acid] | 128 | –
CCn1nc(-c2ccc(Cl)c(F)c2)nc1CC(=O)N[C@@H]1c2ccccc2C[C@@H]1O [Example 62, 2-[3-(4-Chloro-3-fluorophenyl)-1-ethyl-1H-1,2,4-triazol-5-yl]-N-[(1R,2S)-2-hydroxy-2,3-dihydro-1H-inden-1-yl]acetamide] | 49.8 | –
CCn1nc(-c2ccc(Cl)c(F)c2)nc1CC(=O)NC1Cc2ccccc2C1 [Example 66, 2-[3-(4-Chloro-3-fluorophenyl)-1-ethyl-1H-1,2,4-triazol-5-yl]-N-(2,3-dihydro-1H-inden-2-yl)acetamide] | 92.1 | –
CCn1nc(-c2ccc(Cl)c(F)c2)nc1CC(=O)N[C@H]1C[C@H](O)c2ccccc21 [Example 68, 2-[3-(4-Chloro-3-fluorophenyl)-1-ethyl-1H-1,2,4-triazol-5-yl]-N-[(1S,3S)-3-hydroxy-2,3-dihydro-1H-inden-1-yl]acetamide] | 51.3 | –
O=C(Cc1nc(-c2ccc(Cl)c(F)c2)nn1CC1CC1)N[C@H]1CCc2ccccc21 [Example 72, 2-[3-(4-Chloro-3-fluorophenyl)-1-(cyclopropylmethyl)-1H-1,2,4-triazol-5-yl]-N-[(1S)-2,3-dihydro-1H-inden-1-yl]acetamide] | 92 | –
CCn1nc(-c2ccc(Cl)c(F)c2)nc1CC(=O)N[C@H]1CCOc2ccccc21 [Example 74, 2-[3-(4-Chloro-3-fluorophenyl)-1-ethyl-1H-1,2,4-triazol-5-yl]-N-[(4S)-3,4-dihydro-2H-1-benzopyran-4-yl]acetamide] | 55.3 | –
O=C(Cc1nc(-c2ccc(Cl)c(F)c2)nn1CC1CC1)N[C@H]1CCOc2ccc(Cl)cc21 [Example 78, N-[(4S)-6-Chloro-3,4-dihydro-2H-1-benzopyran-4-yl]-2-[3-(4-chloro-3-fluorophenyl)-1-(cyclopropylmethyl)-1H-1,2,4-triazol-5-yl]acetamide] | 79.1 | –
CCc1cc(CNC(=O)Cc2nc(-c3ccc(Cl)c(F)c3)nn2CC)cc(CC)n1 [Example 80, 2-[3-(4-Chloro-3-fluorophenyl)-1-ethyl-1H-1,2,4-triazol-5-yl]-N-[(2,6-diethylpyridin-4-yl)methyl]acetamide] | 58.9 | –
CCn1nc(-c2ccc(Cl)c(OC(C)C)c2)nc1CC(=O)NCc1cc(C)cc(C)n1 [Example 82, 2-[3-(4-Chloro-3-isopropyloxyphenyl)-1-ethyl-1H-1,2,4-triazol-5-yl]-N-[(4,6-dimethylpyridin-2-yl)methyl]acetamide] | 34.3 | –
CCn1nc(-c2ccc(Cl)c(F)c2)nc1CC(=O)NCc1ccnc(C(F)(F)F)c1 [Example 83, 2-[3-(4-Chloro-3-fluorophenyl)-1-ethyl-1H-1,2,4-triazol-5-yl]-N-{[2-(trifluoromethyl)pyridin-4-yl]methyl}acetamide] | 89.6 | –
CCn1nc(-c2ccc(Cl)c(F)c2)nc1CC(=O)NCc1ccnc(C(F)F)c1 [Example 84, 2-[3-(4-Chloro-3-fluorophenyl)-1-ethyl-1H-1,2,4-triazol-5-yl]-N-{[2-(difluoromethyl)pyridin-4-yl]methyl}acetamide] | 32.2 | –
CCn1nc(-c2ccc(Cl)c(F)c2)nc1CC(=O)NC1(c2cc(C)nc(C)c2)CC1 [Example 86, 2-[3-(4-Chloro-3-fluorophenyl)-1-ethyl-1H-1,2,4-triazol-5-yl]-N-[1-(2,6-dimethylpyridin-4-yl)cyclopropyl]acetamide] | 37.3 | –
